Assays:
[1] = molecular target: T1, Peroxisome proliferator-activated receptor alpha (Homo sapiens) (UniProt Q07869); experiment: Partial agonist activity at human PPARalpha expressed in CHO cells co-transfected with Gal4-responsive luciferase reporter plasmid after 24 hrs by transactivation assay relative to fenofibric acid; type: functional, cell-based; parameters: concentration or dose not given beside the values
T1 sequence (whole entry): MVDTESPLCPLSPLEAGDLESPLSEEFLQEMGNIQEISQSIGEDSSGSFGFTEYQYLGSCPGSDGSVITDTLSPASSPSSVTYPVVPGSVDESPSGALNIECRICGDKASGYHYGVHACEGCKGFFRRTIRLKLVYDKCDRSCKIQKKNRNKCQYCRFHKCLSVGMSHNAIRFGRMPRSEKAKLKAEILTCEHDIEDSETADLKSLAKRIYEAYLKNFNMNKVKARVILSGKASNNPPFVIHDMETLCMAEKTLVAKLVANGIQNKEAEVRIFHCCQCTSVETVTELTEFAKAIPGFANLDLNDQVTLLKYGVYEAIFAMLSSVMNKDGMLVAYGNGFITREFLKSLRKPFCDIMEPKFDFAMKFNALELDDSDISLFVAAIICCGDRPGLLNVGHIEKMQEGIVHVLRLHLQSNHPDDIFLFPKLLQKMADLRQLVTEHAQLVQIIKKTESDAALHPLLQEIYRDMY

[2] = molecular target: T2, Peroxisome proliferator-activated receptor gamma (Homo sapiens, UniProt P37231); experiment: Partial agonist activity at human PPARgamma expressed in CHO cells co-transfected with Gal4-responsive luciferase reporter plasmid after 24 hrs by transactivation assay; type: functional, cell-based
T2 sequence (P37231 whole entry): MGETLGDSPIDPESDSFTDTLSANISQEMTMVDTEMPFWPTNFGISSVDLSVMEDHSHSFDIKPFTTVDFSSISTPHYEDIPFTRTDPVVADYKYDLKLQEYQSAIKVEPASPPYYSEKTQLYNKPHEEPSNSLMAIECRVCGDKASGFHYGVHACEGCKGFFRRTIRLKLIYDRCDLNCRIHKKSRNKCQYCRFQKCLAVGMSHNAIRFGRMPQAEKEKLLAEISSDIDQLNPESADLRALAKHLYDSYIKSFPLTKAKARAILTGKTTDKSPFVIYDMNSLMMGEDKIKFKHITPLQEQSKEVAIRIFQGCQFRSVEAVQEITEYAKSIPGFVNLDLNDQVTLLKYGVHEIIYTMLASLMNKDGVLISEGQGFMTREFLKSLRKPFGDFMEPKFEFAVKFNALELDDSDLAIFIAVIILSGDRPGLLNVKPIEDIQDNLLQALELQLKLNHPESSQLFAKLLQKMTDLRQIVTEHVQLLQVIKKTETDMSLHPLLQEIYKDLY

[3] = molecular target: T3, Peroxisome proliferator-activated receptor alpha (Homo sapiens, UniProt Q07869); experiment: Partial agonist activity at human PPARalpha expressed in CHO cells co-transfected with Gal4-responsive luciferase reporter plasmid after 24 hrs by transactivation assay; type: functional, cell-based
T3 sequence (Q07869 whole entry): T1 sequence (whole entry)

Mus musculus [4] = experiment: Antidiabetic effect in db/db mouse assessed as reduction in plasma triglyceride level at 30 mg/kg/day, po administered daily for 14 days; type: functional; settings: 336 h
Mus musculus [5] = experiment: Antidiabetic effect in db/db mouse assessed as reduction in plasma glucose level at 30 mg/kg/day, po administered daily for 14 days; type: functional; settings: 336 h
Mus musculus [6] = experiment: Antidiabetic effect in db/db mouse assessed as increase in HDL cholesterol level at 30 mg/kg/day, po administered daily for 14 days; type: functional; settings: 336 h
Mus musculus [7] = experiment: Toxicity in db/db mouse assessed as body weight gain at 30 mg/kg/day, po administered daily for 14 days relative to control; type: organism-based; parameters: route oral; settings: in vivo, 336 h
Homo sapiens = organism: Homo sapiens; experiment: Selectivity ratio of EC50 for human PPARalpha to EC50 for human PPARgamma
[8] = molecular target: T4, Peroxisome proliferator-activated receptor alpha (Mus musculus) (UniProt P23204); experiment: Partial agonist activity at mouse PPARalpha expressed in CHO cells co-transfected with Gal4-responsive luciferase reporter plasmid after 24 hrs by transactivation assay relative to fenofibric acid; type: functional, cell-based
T4 sequence (whole entry): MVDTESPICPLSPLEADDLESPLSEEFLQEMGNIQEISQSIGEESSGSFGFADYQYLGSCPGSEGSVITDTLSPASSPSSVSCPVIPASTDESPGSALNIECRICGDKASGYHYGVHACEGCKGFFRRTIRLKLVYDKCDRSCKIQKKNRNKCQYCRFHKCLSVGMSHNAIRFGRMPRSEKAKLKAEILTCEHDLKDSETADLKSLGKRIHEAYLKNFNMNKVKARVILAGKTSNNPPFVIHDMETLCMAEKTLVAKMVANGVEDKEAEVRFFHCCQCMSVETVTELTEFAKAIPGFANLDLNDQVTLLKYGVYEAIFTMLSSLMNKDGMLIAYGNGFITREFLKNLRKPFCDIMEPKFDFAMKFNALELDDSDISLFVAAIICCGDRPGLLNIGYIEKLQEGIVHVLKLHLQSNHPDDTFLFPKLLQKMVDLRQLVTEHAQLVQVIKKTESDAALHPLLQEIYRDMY

[9] = Selectivity ratio of EC50 for mouse PPARalpha to EC50 for human PPARgamma
[10] = Cmax in rat at 10 mg/kg, po; type: ADME, organism-based; parameters: dose 10 mg/kg, route oral; settings: in vivo
[11] = Oral bioavailability in rat at 10 mg/kg; type: ADME, organism-based; settings: in vivo
[12] = Half life in rat at 1 mg/kg, iv; type: ADME, organism-based; parameters: dose 1 mg/kg, route intravenous; settings: in vivo
Mus musculus [13] = experiment: Toxicity in db/db mouse assessed as effect on food intake at 30 mg/kg/day, po administered daily for 14 days relative to control; type: organism-based; parameters: route oral; settings: in vivo, 336 h
[14] = Clearance in rat at 1 mg/kg, iv; type: ADME, organism-based; parameters: dose 1 mg/kg, route intravenous; settings: in vivo
[15] = Volume of distribution in rat at 1 mg/kg, iv; type: ADME, organism-based; parameters: dose 1 mg/kg, route intravenous; settings: in vivo

**Q.** For `Cc1ccc(C(=O)c2nc(C)c(C)n2C/C=C/c2cccc(OC(C)(C)C(=O)O)c2)cc1`, which Activity [1] is on record?
**A.** 60%

**Q.** And the EC50 [2]?
**A.** 4.8 µM

**Q.** What about the EC50 [3] of the same molecule?
**A.** 3.6 µM

**Q.** For `Cc1ccc(C(=O)c2nccn2C/C=C/c2cccc(OC(C)(C)C(=O)O)c2)cc1`, which Activity [1] is on record?
**A.** 56%

**Q.** And the EC50 [2]?
**A.** 12 µM

**Q.** And the EC50 [3]?
**A.** 0.62 µM

**Q.** With `CC(C)(Oc1ccc(C(=O)c2ccc(Cl)cc2)cc1)C(=O)O` as the molecule, how does the Activity [1] read?
**A.** 100%

**Q.** With `Cc1ccc(C(=O)c2nc3ccccc3n2/C=C/c2cccc(OC(C)(C)C(=O)O)c2)cc1` [listing 1 of 2 here] as the molecule, how does the EC50 [2] read?
**A.** 0.13 µM

**Q.** And the EC50 [3]?
**A.** 2.4 µM

**Q.** Which EC50 [2] does the source give for `Cc1ccc(C(=O)c2nc3ccccc3n2Cc2cccc(OC(C)(C)C(=O)O)c2)cc1` here?
**A.** 6 µM

**Q.** Which results are given for `CCc1ccc(CCOc2ccc(CC3SC(=O)NC3=O)cc2)nc1` (centres undefined) [PIOGLITAZONE]?
**A.** inhibition in vivo at 30 mg/kg/day (Mus musculus [4]): 69%; inhibition in vivo at 30 mg/kg/day (Mus musculus [5]): 46%; inhibition in vivo at 30 mg/kg/day (Mus musculus [6]): 10%; Activity (Mus musculus [7]): 17%

**Q.** For `Cc1ccc(C(=O)c2nc3ccccc3n2C/C=C/c2cccc(OC(C)(C)C(=O)O)c2)cc1`, which Activity [1] is on record?
**A.** 42%

**Q.** What about the EC50 [2] of the same molecule?
**A.** 1.7 µM

**Q.** And the EC50 [3]?
**A.** 3.6 µM

**Q.** Which EC50 [2] does the source give for `Cc1ccc(C(=O)c2nccn2C/C=C/c2cccc(OCC(=O)O)c2)cc1` here?
**A.** > 10 µM

**Q.** What about the EC50 [3] of the same molecule?
**A.** > 10 µM

**Q.** For `Cc1ccc(C(=O)c2nc3ccccc3n2-c2cccc(OC(C)(C)C(=O)O)c2)cc1`, which EC50 [2] is on record?
**A.** 3.3 µM

**Q.** With `Cc1ccc(C(=O)c2nc3ccccc3n2C/C=C/c2cccc(OCC(=O)O)c2)cc1` as the molecule, how does the EC50 [2] read?
**A.** 4.6 µM

**Q.** And the EC50 [3]?
**A.** > 10 µM

**Q.** With `Cc1ccc(C(=O)c2nc3c(n2C/C=C/c2cccc(OC(C)(C)C(=O)O)c2)CCCC3)cc1` as the molecule, how does the Activity [1] read?
**A.** 60%

**Q.** And the EC50 [2]?
**A.** 3 µM

**Q.** What about the EC50 [3] of the same molecule?
**A.** 3.6 µM

**Q.** What does the source list for `Cc1ccc(C(=O)c2nc3ccccc3n2/C=C/c2cccc(OC(C)(C)C(=O)O)c2)cc1` [listing 2 of 2 here]?
**A.** Activity [1]: 44%; Ratio EC50 (Homo sapiens): 18; Activity [8]: 77%; Ratio EC50 [9]: 13

**Q.** For `Cc1ccc(C(=O)c2nc3ccccc3n2/C=C/c2cccc(OC(C)(C)C(=O)[O-])c2)cc1.[Na+]`, which inhibition in vivo at 30 mg/kg/day (Mus musculus [4]) is on record?
**A.** 86%

**Q.** What about the inhibition in vivo at 30 mg/kg/day (Mus musculus [5]) of the same molecule?
**A.** 60%

**Q.** And the Cmax [10]?
**A.** 4340 ng/mL

**Q.** And the bioavailability [11]?
**A.** 110%

**Q.** What about the inhibition in vivo at 30 mg/kg/day (Mus musculus [6]) of the same molecule?
**A.** 38%

**Q.** And the Activity (Mus musculus [7])?
**A.** 11%

**Q.** And the half-life [12]?
**A.** 1.45 h

**Q.** And the Activity (Mus musculus [13])?
**A.** Non-toxic

**Q.** And the clearance [14]?
**A.** 3.48 mL/min/kg

**Q.** What about the Vd [15] of the same molecule?
**A.** 0.747 L/kg

Source: ChEMBL document CHEMBL1759929, “Synthesis and pharmacological evaluation of novel benzoylazole-based PPAR α/γ activators” (Bioorg Med Chem Lett, 2011)
